In brackets after ≈: the same amount, converted by molar mass. Several values for one entry are separate records, joined by “and”; a condition that tells them apart may be missing. Equal values may be shown once. Entries after “also recorded” stand apart in the source; their conditions may differ. Read-outs that look alike come from different tables or passages of the source.
Tests used:
Vero cells = test: Cytotoxicity on Vero cells, MTT assay; assay type: cell-based; conditions: 1 µg/mL, 24 h; not shown
[1] = test system: Trypanosoma cruzi cell-derived trypomastigotes; test: Activity on cell-derived trypomastigotes at 4 °C, 24 h, MTT assay; assay type: cell-based, T. cruzi clone Dm28c; conditions: for Selectivity index (SI) - Vero cells: Table II, CC50 Vero cells / IC50 cell-derived trypomastigotes (4 °C); for IC50: Trypanosoma cruzi
[2] = Cytotoxicity on Vero cells, MTT assay; assay type: cell-based; conditions: African green monkey, Vero cells (ATCC CCL-81), Vero cells
Description: MTT assay - After drug treatments, MTT solution (10 mg/mL in PBS) was added to each well for a final concentration of 2.5 mg/mL (or 1 mg/mL for trypomastigotes). Plates were incubated for 3 h at 28 °C in the dark, centrifuged for 10 min at 475 g and the supernatant was removed (by quick plate reversal). Then, 20 µL SDS was added to each well, followed by incubation for 1 h at 28 °C, after which 80 µL DMSO was added to each well and incubated for a further 1 h at 28 °C. Finally, the residual material was removed with the aid of a toothpick, and sample absorbance (at 550 nm) was read in an EL800 microplate reader (Biotek, Winooski, VT, USA). Dose-response curves were produced using the CompuSyn software, which was also used to calculate IC50/24 values.
Cytotoxicity - Vero cells were seeded in 96-well plates (2 x 10^4 cells/well) with RPMI-1640 medium and cultivated for 24 h at 37 °C (5% CO2). […] Then, plates were subjected to the MTT assay as described above (see “MTT assay”), and MTT data were used to calculate 50% cytotoxicity (CC50/24 h) values. Plates were examined in an inverted microscope every 12 h, to evaluate monolayer integrity (confluence and adhesion).

[3] = test system: Trypanosoma cruzi intracellular amastigotes; test: PaEO activity against intracellular amastigotes in Vero cells, 37 °C, 24 h, infection index; assay type: cell-based; conditions: for Amastigotes per cell / Infected cells (%): Vero cells; for Infection index (II): II = % infected cells x amastigotes per cell
Description: Vero cells - Vero cells (ATCC CCL-81) were grown in RPMI-1640 medium with L-glutamine (Sigma Aldrich, St. Louis, MO, USA), supplemented with 5% fetal calf serum (FCS; Cultilab, Campinas, SP, Brazil), at 37 °C, and in a humidified 5% CO2 atmosphere. For seeding, cell monolayers were washed twice with PBS (pH 7.2), trypsinized and collected by centrifugation at 100 g for 2 min.
(§1) Parasites - In this work, we used the T. cruzi clone Dm28c. Epimastigote forms were kept at 28 °C in LIT medium supplemented with 10% inactivated FCS, with passages at every three days. For the experiments, parasites obtained from 72-h cultures were used.
(§2) Single drug activity assays on T. cruzi developmental forms - All experiments were performed in biological and technical triplicates. Incubations were performed for 24 h in all bioassays. The absorbance of untreated cells in culture media containing 0.5% DMSO (control) was used as 100% cell viability, and the percentage of dead cells in each treatment was estimated by comparison with the untreated control.
(§3) For all assays, IC50/24 h values (based on cell counting, MTT data or infection index values) and dose-response curves were generated using the CompuSyn software (ComboSyn Inc., Paramus, NJ, USA), and statistical analysis was performed in Excel. For all assays, the fraction of affected cells (Fa) was calculated relative to the untreated control (treated/untreated ratio).
To test PaEO activity against intracellular amastigotes, Vero cells were seeded in 24-well plates (2 x 10^4 cells/well) in DMEM (Sigma-Aldrich), and allowed to adhere for 24 h. Then, cell-derived trypomastigotes were added to each well (1:10 ratio of cells to parasites), incubated for 3 h, and non-internalised parasites were removed by washing with PBS. Infected cultures were incubated for 24 h (at 37 °C, 5% CO2), and then the culture medium was replaced with RPMI-1640 containing PaEO or BZ at final concentrations between 1 and 100 µg/mL (total volume of 1 mL/well), and plates were incubated for 24 h, at 37 °C (5% CO2). Treated cells were fixed with methanol, stained with Giemsa, and the inhibitory effect on intracellular amastigotes was estimated by counting (a) the number of infected cells, and (b) the number of amastigotes per cell, in 100 cells/wells, from random light microscopy images.

[4] = test system: Trypanosoma cruzi metacyclic trypomastigotes; test: PaEO activity on metacyclic trypomastigotes at 28 °C, 24 h, cell counting; assay type: cell-based, T. cruzi clone Dm28c
Description: as §1
To obtain metacyclic trypomastigotes, culture epimastigotes in late logarithmic growth phase (five days) were subjected to nutritional stress as described previously ([Contreras et al. 1985]). […]
as §2, with “Incubations were performed for 24 h in all bioassays.” left out
as §3, with “ratio). […]” for “ratio).”

Chagas disease = conditions: cited from earlier work; for Treatment efficacy: ref Rassi et al. 2009
[5] = test system: Trypanosoma cruzi epimastigotes; test: PaEO activity on epimastigotes at 28 °C, 24 h, MTT assay; assay type: cell-based, T. cruzi clone Dm28c
Description: as §1, §2, §3
To test the activity of PaEO on epimastigote forms, these cells were seeded into 96-well plates (5 x 10^6 cells/well) in LIT medium, and treated for 24 h at 28 °C with PaEO at the final concentrations of 9, 18, 37, 75, 150 and 300 µg/mL. […] Cell viability was assessed by the MTT assay (see “MTT assay”). […]

[6] = test system: Trypanosoma cruzi cell-derived trypomastigotes; test: PaEO activity on cell-derived trypomastigotes at 28 °C, 24 h, cell counting; assay type: cell-based, T. cruzi clone Dm28c
Description: To obtain cell-derived trypomastigotes, Vero cells were incubated with cell-derived trypomastigotes (1:10 ratio of cells to parasites) in 75 cm^2 culture flasks containing 8 mL DMEM. After 4 h of interaction, non-internalised parasites were removed by rinsing with phosphate-buffered saline (PBS), new medium was added, and then changed to fresh medium every 24 h. After 96 h of infection, trypomastigotes released into the supernatant were collected by centrifugation at 3000 g for 10 min.
PaEO activity assays with cell-derived trypomastigotes were performed at 28 °C and 4 °C. […]

red blood cells (RBCs) = test: Cytotoxicity on red blood cells at 4 °C; assay type: cell-based, human; conditions: CC50 RBCs (4 °C) / IC50 cell-derived trypomastigotes (4 °C)
Description: (§4) To analyse cytotoxicity on red blood cells (RBCs) at 4 °C, human erythrocytes were obtained from 10-mL blood samples (O+), from a healthy volunteer donor, as previously described ([Izumi et al. 2012]). After collection, blood was […] and then washed with a sterile ‘saline-glucose’ solution (0.85% NaCl/5% glucose). The final pellet was diluted in saline-glucose and centrifuged for 5 min at 1400 g. The supernatant was discarded and the pellet of RBCs was diluted in saline-glucose, for a final concentration of 6%. […] Negative control samples represented untreated RBCs diluted in saline-glucose. After treatment, plates were centrifuged at 1027 g for 2 min, and 100 µL of supernatant from each well were transferred to a new plate and analysed (at 550 nm) in an EL800 microplate reader (Biotek, Winooski, VT, USA). Cytotoxicity (CC50) values were calculated using Excel, and selectivity index (SI) values were calculated as the ratio between the CC50/24 h (for Vero cells or RBCs) and IC50/24 h values.

[7] = Cytotoxicity on red blood cells at 4 °C; assay type: cell-based, human; conditions: red blood cells (erythrocytes); human RBCs, 4 °C
Description: as §4

[8] = test system: T. cruzi blood trypomastigotes (Y strain); set-up: method as in Santoro et al. 2007b; conditions: ref Santoro et al. 2007b; cited from earlier work
[9] = 37 °C, read-out: Vero cells CC50/24 h
[10] = Trypanosoma cruzi, 24 h, read-out: IC50/24 h

## C=CC(C)(O)CCC=C(C)CCC=C(C)C (mixture of isomers) [nerolidol]
Vero cells
  Integrity of Vero cell monolayers: did not affect the integrity; also recorded: remained intact
[1]; 100 ng/mL to 1 µg/mL, 4 °C, 24 h, data not shown
  Trypanocidal activity (light microscopy and MTT): no appreciable trypanocidal activity; also recorded: failed to affect significantly

## O=C(Cn1ccnc1[N+](=O)[O-])NCc1ccccc1 [BZ, Benznidazole]
[2]; [9]
  CC50 at 24 h: > 1000 µg/mL
[3]; 10 µg/mL, 24 h
  II decrease: 81.3%
  Amastigotes per cell: 2.5
  Infected cells (%): 74.9%
  Infection index (II): 187.2
[3]; 50 µg/mL, 24 h
  II decrease: 99.9%
  Amastigotes per cell: 0.9
  Infected cells (%): 0.4%
  Infection index (II): 0.3
[3]; CC50 on Vero cells / IC50, amastigotes 37 °C
  Selectivity index (SI): 1,276.2
[3]; Trypanosoma cruzi, Vero, 24 h, read-out: IC50/24 h
  IC50: 0.8 µg/mL (≈ 3.07 µM)
[4]; CC50 on Vero cells / IC50, metacyclic trypomastigotes 28 °C
  Selectivity index (SI): 3,646.4
[4]; [10]
  IC50: 0.3 µg/mL (≈ 1.15 µM)
Chagas disease; acute phase of the disease
  Treatment efficacy: approximately 80%
Chagas disease; chronic phase of the disease
  Treatment efficacy: ~20%
Chagas disease; ref Bern 2011
  Treatment discontinuation due to side effects: 7-13 % of cases
[5]; CC50 on Vero cells / IC50, epimastigotes 28 °C
  Selectivity index (SI): 69.4
[5]; [10]
  IC50: 45 µM and 14.7 µg/mL
[6]; CC50 on Vero cells / IC50, cell-derived trypomastigotes 28 °C
  Selectivity index (SI): 63.4
[6]; [10]
  IC50: 16.1 µg/mL (≈ 61.9 µM)

## CN(C)c1ccc(C(=C2C=CC(=[N+](C)C)C=C2)c2ccc(N(C)C)cc2)cc1 [Gentian Violet, gentian violet]
Red blood cells (RBCs)
  Selectivity index (SI) - RBCs: > 2.8
[1]
  Selectivity index (SI) - Vero cells: 2.9

## C=CC(C)(O)CCC=C(C)C (centres unmarked) [Linalool, linalool]
[2]; [9]
  CC50 at 24 h: 0.87 µg/mL (≈ 5.64 µM)
[2]; b44 prints at 4 °C, read-out: CC50/24 h
  CC50 at 24 h: 0.824 µg/mL (≈ 5.34 µM)
Red blood cells (RBCs)
  Selectivity index (SI) - RBCs: 23,990
[7]
  CC50 at 24 h: 7340 µg/mL (≈ 47600 µM)
[1]
  Selectivity index (SI) - Vero cells: 2.7
[1]; listed as linalool
  Selectivity index (SI) - Vero cells: 2.69
[1]; cell-derived trypomastigotes, 4 °C, 24 h, read-out: IC50/24 h
  IC50: 0.306 µg/mL (≈ 1.98 µM)
[1]; cell-derived trypomastigotes, 4 °C, 24 h, read-out: T. cruzi IC50/24 h
  IC50: 0.31 µg/mL (≈ 2.01 µM)
[1]; cell-derived trypomastigotes, 4 °C
  Times more efficient than gentian violet: approximately 80,000 times
[1]; linalool at 4 °C vs BZ at 28 °C, cell-derived trypomastigotes
  Times more effective than BZ at 28ºC: approximately 52 times
[8]
  IC50/24 h: 264 µg/mL (≈ 1710 µM)

From article PMC5293122, “Linalool, a Piper aduncum essential oil component, has selective activity against Trypanosoma cruzi trypomastigote forms at 4°C” (Memórias do Instituto Oswaldo Cruz, 2017)
